Assay results reported in patent publication US20160199499A1, “USES OF PH[…] SYNTHETIC TLR7 AGONISTS” (priority 2013, published 2016).
Several values for one entry are separate records, joined by “and”; a condition that tells them apart may be missing. Identical values can stand only once.

What was measured:
Particle size in PBS = assay type: physicochemical
[1] = Body weight monitoring / maximum tolerated dose after pulmonary administration
West Nile Virus (WNV) = experiment: West Nile virus s.c. infection model; assay type: in vivo, C57BL/6 mice
CD11c+ dendritic cells = experiment: In vivo CFSE labeling of dendritic cells, migration to mediastinal lymph nodes (flow cytometry); parameters: species or system C57BL/6 mice; conditions: 1 nmol i.t., 24 h after drug administration
B220+ B cells = experiment: B cell numbers in lymph nodes after pulmonary administration (flow cytometry); conditions: 1 nmol, 7 days post treatment
[2] = test system: cytokines and chemokines in BAL fluids and sera; experiment: Luminex bead assay of cytokines and chemokines in BAL fluids and sera after pulmonary administration
lung parenchyma = experiment: Lung histology (H&E) after i.t. administration; conditions: 1 nmol i.t., 6 and 24 h post treatment
[3] = test system: Venezuelan equine encephalitis virus (Trinidad Donkey, NR-332); parameters: species or system BALB/c mice; conditions: mouse, in vivo, sc
[4] = test system: neutrophils in BAL fluids; experiment: BAL cell counts (Guava cytometer, Wright-Giemsa differential) after i.t. administration; assay type: in vivo, C57BL/6 mice
[5] = test system: influenza A/California/04/2009 (H1N1) virus; parameters: species or system BALB/c mice; conditions: mouse, in vivo
[6] = test system: Vaccinia virus (IHD strain); parameters: species or system BALB/c mice; conditions: mouse, in vivo
[7] = 1 nmol i.t., 6 h post-treatment, vs vehicle
[8] = 24 h after pulmonary (i.n.) administration, up to a 4 nmol dose

CCCCCCCC/C=C\CCCCCCCC(=O)OCC(COP(=O)(O)OCCNC(=O)c1ccc(Cn2c(=O)[nH]c3c(N)nc(OCCOC)nc32)cc1)OC(=O)CCCCCCC/C=C\CCCCCCCC (stereo not shown) [1V270, 2-(4-{[6-Amino-2-(2-methoxyethoxy)-8-oxo-7H-purin-9(8H)-yl]methyl}benzamido)ethyl 2,3-Bis(oleoyloxy)propyl Phosphate]
particle size (Particle size in PBS; dispersed in 50 μL PBS): 100-150 nm | particle size, average (Particle size in PBS; in PBS, regardless of concentration): about 110 nm | weight loss in TLR7 null mice ([1]; 75 nmol i.t., Tlr7-/- mice): did not lose weight | MTD relative to the effective dose ([1]; MTD 75 nmol/animal vs effective dose 1 nmol): 75 times | weight loss compared to vehicle treated mice ([1]; effective dose (1 nmoles), i.t.): did not cause significant weight loss | effective dose ([1]; pulmonary route, mice): 1 nmol | maximum tolerated dose (MTD) ([1]; pulmonary route, mice): 75 nmol/animal | survival compared to placebo-treated mice (West Nile Virus (WNV); 1 nmol/mouse i.n. at days -3 and -1, WNV s.c. day 0): not significant | survival compared to placebo-treated mice (West Nile Virus (WNV); 1 nmol/mouse i.n. on day -1, WNV s.c. day 0 (P≦0.05)): statistically improved | CD11c+ DC migration to the mediastinal lymph nodes (CD11c+ dendritic cells): enhanced | B cell number in the cervical, mesenteric and inguinal nodes (B220+ B cells): did not significantly increase | B cell number in the draining mediastinal lymph nodes (B220+ B cells): did not significantly increase | IL-6 in BAL fluids [2, 7]: significantly increased | KC in BAL fluids [2, 7]: significantly increased | MCP-1 in BAL fluids [2, 7]: significantly increased | IP-10 induction in BAL fluids (surrogate marker of type 1 IFN) ([2]; 1 nmol i.t., monitored up to 72 h): peaked at 24 h and declined to baseline levels 72 h post treatment | IL-6 in sera [2, 8]: minimal insignificant increase | TNFα in sera [2, 8]: minimal insignificant increase | inflammatory cell infiltration into the lung parenchyma (lung parenchyma): did not show inflammatory cell infiltration into the lung parenchyma | mice protected from encephalitis [3]: Eighty | cell infiltration and neutrophil recruitment to BAL fluids in MyD88 or TLR7 null mice ([4]; 1 nmol i.t., 24 h, Myd88-/- or Tlr7-/- mice): diminished | mononuclear cells in BAL fluids ([4]; 1 nmol i.t., 24 h after treatment, also elevated in vehicle-treated mice): slightly elevated | neutrophil population in BAL fluids ([4]; 1 nmol i.t., 24 h and 48 h after treatment): significant increase | total cell numbers in the BAL fluids ([4]; 1 nmol i.t., monitored for 72 h): increased over 48 h and declined to near baseline levels 72 h post pulmonary administration | neutrophil influx dose response ([4]; 24 h post treatment, i.t.): dose responsive between 0.1 to 10 nmol | mice protected from lethal H1N1 pulmonary influenza infection [5]: 100% | Mean Day of Death ± SD [6]: 7.2 ± 0.6 days and 8.4 ± 0.5 days and 9.0 days and 8.0 days and 7.3 ± 0.8 days | Survivors/Total [6]: 0/10 and 10/10*** and 5/10** and 9/10*** and 8/10*** and 3/10* | body weights during the infection [6]: increased over the first three days before declining | mice protected from death [6]: 90-100% | preserving body weight, rank among treatments [6]: best effect in preserving body weight

Nc1ccn(C[C@@H](CO)OCP(=O)(O)O)c(=O)n1 [Cidofovir, reference compound]
Survivors/Total [6]: 10/10 | effects on body weight [6]: superior to treatments with 1V270 that were started on the same day | mice protected from death [6]: 100%
